Patent US20230365577A1, “Photodynamic Therapy and Diagnosis” (RMW CHO Group Limited, priority 2020, published 2023)
Several values for one entry are separate records, joined by “and”; a condition that tells them apart may be missing. Equal values may be shown once. Read-outs that look alike come from different tables or passages of the source.

Assays:
[1] = Estimated pKa of the carboxylic acid; type: physicochemical
Description: As PBS buffer (pH 7.4) is used in the experiments and the carboxylic acid in phyllochlorin (and the same carboxy group in other related chlorins) is estimated to have a pKa of less than 5, phyllochlorin in the PBS buffer will exist predominantly as the sodium and potassium salts with very little to no free acid.

[2] = Acute toxicity after intraperitoneal injection; type: in vivo, C57BL/6 mice; conditions: 5 mg/kg intraperitoneal, 1% PVP in PBS + 20 mM HEPES, observed 30 mins
Protocol: To assess acute toxicity, phyllochlorin or chlorin e4 disodium (each prepared with 1% PVP in PBS+20 mM HEPES) were administered at a dose of 5 mg/kg to C57BL/6 mice by intraperitoneal injection.

[3] = tested on: SKOV3 ovarian cancer cells; assay: Inherent cytotoxicity (dark toxicity) in SKOV3 cells (AlamarBlue viability); type: cell-based, Human; conditions: for Concentration at which cells remained >80% viable (dark toxicity) / Concentration at which cells retained >80% viability (dark toxicity): SKOV3, 24 hours; for Concentration at which cells remained >80% viable (dark toxicity): absence of PVP; for Concentration at which cells retained >80% viability (dark toxicity): with addition of PVP
Protocol: (§1) Human ovarian cancer cell line SKOV3 (ATCC #HTB-77) was maintained in Dulbecco's Modified Eagle Medium/Nutrient Mixture F-12 (DMEM/F-12), supplemented with 10% v/v Fetal Bovine Serum, 100 U/mL penicillin and 100 µg/mL streptomycin. Monolayer cultures were grown in a humidified incubator at 37° C. with 5% CO2.
(§2) For in vitro experiments, photosensitizers (stock solution 5.5 mM in 100% DMSO) were diluted in cell culture media (Dulbecco's Modified Eagle Medium/Nutrient Mixture F-12) supplemented with 10% v/v Fetal Bovine Serum, 100 U/mL penicillin, 100 µg/mL streptomycin and 10% w/v Kollidon-12. Once cells had reached ˜80% confluence, spent media was replaced with media containing photosensitizer and cells were incubated for the desired period of time to allow photosensitizer uptake.
(§3) SKOV3 cells were seeded in 96-well black wall plates (Greiner #655090) at a cell density of 5000 cells in 100 μl culture medium per well. On reaching ˜60% confluence, media was aspirated and replaced with fresh media containing the relevant phyllochlorin analogue from 0-100 μM in DMSO. Cells were incubated for a further 24 hours, allowing uptake of phyllochlorin analogues.
(§4) To test for inherent cytotoxicity (i.e. “dark toxicity”) of the phyllochlorin analogue the culture media was replaced after 24 hours with fresh media containing 10% (v/v) AlamarBlue Cell Viability Reagent (ThermoFisher) and cells incubated at 37° C. for 6 hours. Untreated cells were used as a control. Fluorescence (Ex 555 nm/Em 596 nm) was measured using a Cytation 3 Multimode Plate Reader (Biotek), and cytotoxicity assessed according to the % viable cells remaining. All measurements were made in quadruplicate.
(§5) For comparative purposes, phyllochlorin analogues were tested and compared against both chlorin e4 disodium and Talaporfin sodium, a clinically approved photosensitizer used in the photodynamic treatment of lung cancers. Phototoxicity IC90 values and dark toxicity IC10 values were calculated using a log[inhibitor]-vs normalized response dose curve with variable slope, using the formula Y=100/(1+(IC90/X)^HillSlope (phototoxicity IC90) or Y=100/(1+(IC10/X)^HillSlope (dark toxicity IC10).

[4] = Singlet oxygen (1O2) production rate; type: physicochemical
Description: The production of singlet oxygen (^1O2), cellular phototoxicity and light-independent cytotoxicity (“dark toxicity”) of a number of phyllochlorin analogues were compared against chlorin e4 disodium and Talaporfin sodium (mono-L-aspartyl chlorin e6), the active ingredient of Laserphyrin™.

[5] = Solubility and absorbance maxima (absorbance spectra in DMSO/PBS, with or without PVP); type: physicochemical
Protocol: Absorbance maxima (660±2 nm for phyllochlorin) were used as a surrogate measure of solubility. The relevant phyllochlorin analogue was diluted to 50 μM in PBS (phosphate buffered saline) solutions containing decreasing amounts of DMSO from 100% to 0%.
Where required, polyvinylpyrrolidone (K30) was added to a final concentration of 1% w/v. Absorbance was measured using a Cytation 3 Multimode Plate Reader (Biotek) in spectral scanning mode, with spectra captured between 500-800 nm in 2 nm increments. Equivalent blank solutions were also measured and subtracted accordingly. Each spectrum was normalized to have a minimum signal of 0, and a maximum signal in pure DMSO solution (the most soluble state) of 100%.
The solubility of phyllochlorin was assessed in solutions containing DMSO as an organic solvent. Phyllochlorin (50 μM final concentration) was resuspended in 100% DMSO to fully dissolve the phyllochlorin. With phyllochlorin concentrations maintained at 50 μM the % DMSO was decreased in a stepwise manner from 100% to 0%. All solutions were mixed by vortexing, then centrifuged for 2 mins to pellet any insoluble material. A 150 μl aliquot was transferred to individual wells of a 96-well clear microplate, and absorbance spectra collected between 500-800 nm in 2 nm increments. Equivalent solutions containing decreasing % DMSO were used to control for background.

[6] = tested on: SKOV3 ovarian cancer cells; assay: Phototoxicity in SKOV3 cells (652 nm laser, AlamarBlue viability); type: cell-based, Human; conditions: for IC50: SKOV3, 652 nm laser, estimated from fitted curves
Protocol: as §1, §2
as §3, with “confluence, so” for “confluence,”
(§6) To test for phototoxicity, cells incubated with phyllochlorin analogues (0-10 μM in DMSO) had culture media replaced after 24 hours (as above) and were then exposed to a 652 nm laser (Invion) with laser density at 50 mW/cm^2 for 5 mins (total 15 J/cm^2). Following activation, cells were cultured for a further 24 hours. Media was then replaced with fresh media containing AlamarBlue, and % viable cells remaining assessed as above. Controls included cells treated with phyllochlorin analogues but not activated by laser light; cells without phyllochlorin analogue treatment but with laser light; and untreated controls. All measurements were made in quadruplicate.
as §5

LP9 [7] = assay: Cytotoxicity, pan-cancer panel; type: cell-based; conditions: LP9, immortalised mesothelial cells
Protocol: as §4
(§7) The activity of phyllochlorin analogues against multiple cancer cell types was assessed as above, using compounds 3 and 6 as examples.

DLD-1 [8] = assay: Cytotoxicity, pan-cancer panel; type: cell-based; conditions: DLD-1, colorectal adenocarcinoma
Protocol: as §4, §7

MDA-MB-468 [9] = assay: Cytotoxicity, pan-cancer panel; type: cell-based; conditions: MDA-MB-468, breast adenocarcinoma (triple negative)
Protocol: as §4, §7

OVCAR3 [10] = assay: Cytotoxicity, pan-cancer panel; type: cell-based; conditions: OVCAR3, ovarian adenocarcinoma
Protocol: as §4, §7

CaOV3 [11] = assay: Cytotoxicity, pan-cancer panel; type: cell-based; conditions: CaOV3, ovarian adenocarcinoma
Protocol: as §4, §7

A549 [12] = assay: Cytotoxicity, pan-cancer panel; type: cell-based; conditions: A549, lung adenocarcinoma
Protocol: as §4, §7

HEK293 [13] = assay: Cytotoxicity, pan-cancer panel; type: cell-based; conditions: HEK293, embryonic kidney
Protocol: as §4, §7

HH [14] = assay: Cytotoxicity, pan-cancer panel; type: cell-based; conditions: T cell lymphoma
Protocol: as §4, §7

LP9 [15] = assay: Phototoxicity, pan-cancer panel; type: cell-based; conditions: light or radiation study; LP9, immortalised mesothelial cells
Protocol: as §6, §7

DLD-1 [16] = assay: Phototoxicity, pan-cancer panel; type: cell-based; conditions: Homo sapiens, light or radiation study; DLD-1, colorectal adenocarcinoma
Protocol: as §6, §7

MDA-MB-468 [17] = assay: Phototoxicity, pan-cancer panel; type: cell-based; conditions: Homo sapiens, light or radiation study; MDA-MB-468, breast adenocarcinoma (triple negative)
Protocol: as §6, §7

OVCAR3 [18] = assay: Phototoxicity, pan-cancer panel; type: cell-based; conditions: Homo sapiens, OVCAR-3, light or radiation study; OVCAR3, ovarian adenocarcinoma
Protocol: as §6, §7

CaOV3 [19] = assay: Phototoxicity, pan-cancer panel; type: cell-based; conditions: Homo sapiens, Caov-3, light or radiation study; CaOV3, ovarian adenocarcinoma
Protocol: as §6, §7

A549 [20] = assay: Phototoxicity, pan-cancer panel; type: cell-based; conditions: Homo sapiens, light or radiation study; A549, lung adenocarcinoma
Protocol: as §6, §7

HEK293 [21] = assay: Phototoxicity, pan-cancer panel; type: cell-based; conditions: Homo sapiens, light or radiation study; HEK293, embryonic kidney
Protocol: as §6, §7

HH [22] = assay: Phototoxicity, pan-cancer panel; type: cell-based; conditions: Homo sapiens, light or radiation study, T cell lymphoma
Protocol: as §6, §7

[23] = SKOV3, 24 h incubation, no light
[24] = SKOV3, 24 h uptake, 652 nm laser 50 mW/cm2 5 mins (15 J/cm2), viability 24 h later, read-out: Cellular Toxicity: Phototoxicity IC90

## C=CC1=C(C)c2cc3nc(c(C)c4cc(C)c(cc5[nH]c(cc1n2)c(C)c5CC)[nH]4)[C@@H](CCC(=O)O)[C@@H]3C [Phyllochlorin free acid, phyllochlorin free acid]
[1]
  pKa of the carboxylic acid: less than 5
[2]
  Side effects (clinical signs of acute toxicity): No side effects were noted
[3]
  Concentration at which cells remained >80% viable (dark toxicity): 10 µM
  Concentration at which cells retained >80% viability (dark toxicity): up to 25 μM
[3]; [23]
  Cellular Toxicity: Dark toxicity IC10: 13810 nM
[4]
  Singlet Oxygen Production (slope) 1O2: 1335.5
[5]; 50 μM, 1% w/v PVP, absorbance as surrogate
  Solubility: remained soluble in aqueous solvent (without DMSO)
[5]; aqueous solvent, single broad peak
  Absorbance maxima: 688±2 nm
[5]; fully solubilized in organic solvent (75% DMSO and above)
  Absorbance maxima: 660±2 nm
[6]; absence of PVP
  IC50: 63.1 nM and 60 nM
[6]; with addition of PVP
  IC50: 53.9 nM
[6]; [24]
  IC90: 290 nM
[6]; ovarian cancer cells, head to head, without PVP
  Times more potent as a phototoxic agent than chlorin e4 disodium salt: ~75 times

## C=Cc1c(C)c2cc3nc(c(C)c4cc(C)c(cc5nc(cc1[nH]2)C(C)=C5CC)[nH]4)[C@@H](CCC(=O)NCCCS[C@@H]1O[C@H](CO)[C@@H](O)[C@H](O)[C@H]1O)[C@@H]3C [Compound 3, 3-((7S,8S)-18-ethyl-2,5,8,12,17-pentamethyl-13-vinyl-7H,8H-porphyrin-7-yl)-N-(3-(((2S,3R,4S,5S,6R)-3,4,5-trihydroxy-6-(hydroxymethyl)tetrahydro-2H-pyran-2-yl)thio)propyl)propanamide]
LP9 [7]
  Cytotoxicity IC10: 18010 nM
DLD-1 [8]
  Cytotoxicity IC10: 42280 nM
MDA-MB-468 [9]
  Cytotoxicity IC10: 6000 nM
OVCAR3 [10]
  Cytotoxicity IC10: 29970 nM
CaOV3 [11]
  Cytotoxicity IC10: 5430 nM
A549 [12]
  Cytotoxicity IC10: 4220 nM
HEK293 [13]
  Cytotoxicity IC10: 8110 nM
HH [14]
  Cytotoxicity IC10: 14800 nM
[3]; human, 24 h
  Cellular Toxicity: Dark toxicity IC10: 20660 nM
  Cytotoxicity IC10: 20660 nM
[4]
  Singlet Oxygen Production (slope) 1O2: 2054.0
LP9 [15]
  IC90: 40 nM
DLD-1 [16]
  IC90: 360 nM
MDA-MB-468 [17]
  IC90: 70 nM
OVCAR3 [18]
  IC90: 170 nM
CaOV3 [19]
  IC90: 50 nM
A549 [20]
  IC90: 200 nM
HEK293 [21]
  IC90: 220 nM
HH [22]
  IC90: 110 nM
[6]; Homo sapiens, SK-OV-3, light or radiation study, SKOV3, ovarian clear cell (Table 2), read-out: Phototoxicity IC90
  IC90: 110 nM
[6]; Homo sapiens, SK-OV-3, light or radiation study, SKOV3, 24 h uptake, 652 nm laser 50 mW/cm2 5 mins (15 J/cm2), viability 24 h later, read-out: Cellular Toxicity: Phototoxicity IC90
  IC90: 80 nM
[6]; Homo sapiens, SK-OV-3, light or radiation study, SKOV3, read-out: Phototoxicity apparent IC90
  IC90: < 100 nM

## C=Cc1c(C)c2cc3nc(c(C)c4[nH]c(cc5nc(cc1[nH]2)C(C)=C5CC)c(C)c4C(=O)O)[C@@H](CCC(=O)O)[C@@H]3C [Chlorin e4 disodium, chlorin e4 disodium, reference compound]
[2]
  Side effects (clinical signs of acute toxicity): No side effects were noted
[3]
  Concentration at which cells remained >80% viable (dark toxicity): up to 80 μM
  Concentration at which cells retained >80% viability (dark toxicity): 100 µM
[3]; [23]
  Cellular Toxicity: Dark toxicity IC10: 40230 nM
[4]
  Singlet Oxygen Production (slope) 1O2: 998.2
[6]; absence of PVP
  IC50: 4530 nM
[6]; with addition of PVP
  IC50: 1350 nM
[6]; [24]
  IC90: 21300 nM
